Test results published in patent US10968193B2, “Antidiabetic bicyclic compounds” (Merck Sharp & Dohme Corp., priority 2014, dated 2021).

These compounds were tested against T1, human GPR40 (Homo sapiens, UniProt O14842) (assay: Inositol Phosphate Turnover (IP1) Assay 3). Settings: HEK cells stably expressing human GPR40.
T1 construct: expressed in transfected cells; host or cells: HEK cells stably expressing the aequorin reporter
Type: cell-based
In short: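 HEK cells stably expressing human GPR40, plated 16 h before, were treated with compound for 60 min at 37 °C in stimulation buffer. IP1 measured by HTRF (665/620 nm ratio) against an IP1 standard curve; activity normalized to a reference compound, EC50 from 4-parameter fit.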

T1 sequence (O14842 whole entry): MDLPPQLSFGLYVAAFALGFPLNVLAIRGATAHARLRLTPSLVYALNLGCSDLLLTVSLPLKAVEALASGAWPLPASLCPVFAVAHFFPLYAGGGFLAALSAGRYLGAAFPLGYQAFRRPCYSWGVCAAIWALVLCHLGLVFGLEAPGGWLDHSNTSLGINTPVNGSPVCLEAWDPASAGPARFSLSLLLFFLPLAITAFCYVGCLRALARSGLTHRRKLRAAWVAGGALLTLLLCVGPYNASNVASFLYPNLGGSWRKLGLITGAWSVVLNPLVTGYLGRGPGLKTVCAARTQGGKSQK

Structure (SMILES) | EC50 [pM]
COc1cc(-c2ccc([C@H]3CCc4ccc([C@H](C5CC5)[C@H](C)C(=O)O)cc4O3)cc2CN2C[C@H]3C[C@H]3C2)c(F)cn1 [Example 138] | 300
CCN(Cc1cc([C@H]2CCc3ccc([C@H](C4CC4)[C@H](C)C(=O)O)cc3O2)ccc1-c1cc(OC)ncc1F)C(C)C [Example 139] | 500
COc1cc(-c2ccc([C@H]3CCc4ccc([C@H](C5CC5)[C@H](C)C(=O)O)cc4O3)cc2CN(C(C)C)C(C)C)c(F)cn1 [Example 170] | 70
COc1cc(-c2ccc([C@@H]3CCc4ccc([C@H](C5CC5)[C@H](C)C(=O)O)cc4O3)cc2CN(C)C(C)(C)C)c(F)cn1 [Example 226, Sodium (2S,3R)-3-((S)-2-(3-((tert-butyl(methyl)amino)methyl)-4-(5-fluoro-2-methoxypyridin-4-yl)phenyl)chroman-7-yl)-3-cyclopropyl-2-methylpropanoate] | 1100
CCN(Cc1cc(C2CCc3ccc([C@H](C4CC4)[C@H](C)C(=O)O)cc3O2)ccc1-c1cc(OC)ncc1F)C(C)(C)C (stereo partly shown) [Example 228] | 120
COc1cc(-c2ccc(C3CCc4ccc([C@H](C5CC5)[C@H](C)C(=O)O)cc4O3)cc2CN(C(C)C)C(C)(C)C)c(F)cn1 (stereo partly shown) [Example 229] | 70
COc1cc(-c2ccc(C3CCc4ccc([C@H](C5CC5)[C@H](C)C(=O)O)cc4O3)cc2CN2C(C)(C)CCCC2(C)C)c(F)cn1 (stereo partly shown) [Example 230] | 90
COc1cc(-c2ccc(C3CCc4ccc([C@H](C5CC5)[C@H](C)C(=O)O)cc4O3)cc2CN2[C@H](C)CCC[C@H]2C)ccn1 (stereo partly shown) [Example 240] | 1400
COc1cc(-c2ccc(C3CCc4ccc([C@H](C5CC5)[C@H](C)C(=O)O)cc4O3)cc2CN2CCCCC2(C)C)ccn1 (stereo partly shown) [Example 242] | 3100
CCN(C)C(C)c1cc(C2CCc3ccc([C@H](C4CC4)[C@@H](C)C(=O)O)cc3O2)ccc1-c1cc(OC)ncc1F (stereo partly shown) [Example 246] | 2200
CCN(Cc1cc(C2CCc3ccc([C@H](C4CC4)[C@H](C)C(=O)O)cc3O2)ccc1-c1cc(OC)ncc1F)C(C)C (stereo partly shown) [Example 255] | 300
COc1cc(-c2ccc(C3CCc4ccc([C@H](C5CC5)[C@H](C)C(=O)O)cc4O3)cc2CN2[C@H](C)CCC[C@H]2C)c(F)cn1 (stereo partly shown) [Example 257] | 400
COc1cc(-c2ccc(C3CCc4ccc([C@H](C5CC5)[C@H](C)C(=O)O)cc4O3)cc2CN2[C@H](C)CCC[C@@H]2C)c(F)cn1 (stereo partly shown) [Example 259] | 200
COc1cc(-c2ccc(C3CCc4ccc([C@H](C5CC5)[C@H](C)C(=O)O)cc4O3)cc2CN2CCC3(CC2)CC3)c(F)cn1 (stereo partly shown) [Example 261] | 600
COc1cc(-c2ccc(C3CCc4ccc([C@H](C5CC5)[C@H](C)C(=O)O)cc4O3)cc2CN2CCCC23CCC3)c(F)cn1 (stereo partly shown) [Example 264] | 200
COc1cc(-c2ccc(C3CCc4ccc([C@H](C5CC5)[C@H](C)C(=O)O)cc4O3)cc2CN2CCC(C)(C)C2)c(F)cn1 (stereo partly shown) [Example 266] | 100
COc1cc(-c2ccc(C3CCc4ccc([C@H](C5CC5)[C@H](C)C(=O)O)cc4O3)cc2CN2C3CCCC2CC3)c(F)cn1 (stereo partly shown) [Example 270] | 900
COc1cc(-c2ccc(C3CCc4ccc([C@H](C5CC5)[C@H](C)C(=O)O)cc4O3)cc2CN2[C@H](C)CC[C@H]2C)ccn1 (stereo partly shown) [Example 274] | 4300
COc1cc(-c2ccc(C3CCc4ccc([C@H](C5CC5)[C@H](C)C(=O)O)cc4O3)cc2CN2[C@H](C)CC[C@@H]2C)ccn1 (stereo partly shown) [Example 275] | 2800
COc1cc(-c2ccc(C3CCc4ccc([C@H](C5CC5)[C@H](C)C(=O)O)cc4O3)cc2CN2CCCC3(CC3)C2)ccn1 (stereo partly shown) [Example 277] | 1900
COc1cc(-c2ccc(C3CCc4ccc([C@H](C5CC5)[C@H](C)C(=O)O)cc4O3)cc2CN2CCCC2)ccn1 (stereo partly shown) [Example 278] | 19000

The remaining compounds from weak to strong by EC50, led by results:

EC50 [pM] | Structure (SMILES)
810000 | COc1cc(-c2ccc(C3CCc4ccc([C@H](C5CC5)[C@H](C)C(=O)O)cc4O3)cc2CNC(C)C)ccn1 (stereo partly shown) [Example 243]
278000 | COc1cc(-c2ccc(C3CCc4ccc([C@H](C5CC5)[C@H](C)C(=O)O)cc4O3)cc2CN2CCC(C(N)=O)CC2)c(F)cn1 (stereo partly shown) [Example 272]
53000 | COc1cc(-c2ccc(C3CCc4ccc([C@H](C5CC5)[C@H](C)C(=O)O)cc4O3)cc2CN2CCCC2)ccn1 (stereo partly drawn) [Example 175, (2S, 3R)-3-cyclopropyl-3-(2-(4-(2-methoxypyridin-4-yl)-3-(pyrrolidin-1-ylmethyl)phenyl)-chroman-7-yl)-2-methylpropanoic acid]
42000 | COc1cc(-c2ccc(C3CCc4ccc([C@H](C5CC5)[C@H](C)C(=O)O)cc4O3)cc2CNC(C)(C)C)c(F)cn1 (stereo partly shown) [Example 233]
36000 | COc1cc(-c2ccc([C@@H]3CCc4ccc([C@H](C5CC5)[C@H](C)C(=O)O)cc4O3)cc2CNC(C)C)c(F)cn1 [Example 232]
30000 | COc1cc(-c2ccc(C3CCc4ccc([C@H](C5CC5)[C@H](C)C(=O)O)cc4O3)cc2CN2CCC[C@@H]2C)ccn1 (stereo partly shown) [Example 279]
21000 | COc1cc(-c2ccc(C3CCc4ccc([C@H](C5CC5)[C@H](C)C(=O)O)cc4O3)cc2CN(C)C(C)(C)C)ccn1 (stereo partly shown) [Example 234]
14200 | COc1cc(-c2ccc(C3CCc4ccc([C@H](C5CC5)[C@H](C)C(=O)O)cc4O3)cc2C(C)N2CCCC2)ccn1 (stereo partly shown) [Example 249]
14000 | COc1cc(-c2ccc(C3CCc4ccc([C@H](C5CC5)[C@@H](C)C(=O)O)cc4O3)cc2CN(C)C(C)(C)C)c(F)cn1 (stereo partly shown) [Example 227]
6200 | COc1cc(-c2ccc(C3CCc4ccc([C@H](C5CC5)[C@H](C)C(=O)O)cc4O3)cc2CN2C[C@H]3CC[C@@H]2C3)c(F)cn1 (stereo partly shown) [Example 269]
2600 | COc1cc(-c2ccc(C3CCc4ccc([C@H](C5CC5)[C@H](C)C(=O)O)cc4O3)cc2CN2CCC(C#N)CC2)c(F)cn1 (stereo partly shown) [Example 271]
1900 | COc1cc(-c2ccc(C3CCc4ccc([C@H](C5CC5)[C@H](C)C(=O)O)cc4O3)cc2CN2CC3CC3C2)c(C#N)cn1 (stereo partly drawn) [Example 191, (2S, 3R)-3-(2-(3-(3-azabicyclo[3.1.0]hexan-3-ylmethyl)-4-(5-cyano-2-methoxypyridin-4-yl)phenyl)chroman-7-yl)-3-cyclopropyl-2-methylpropanoic acid]
1300 | CCN(Cc1cc(C2CCc3ccc([C@H](C4CC4)[C@H](C)C(=O)O)cc3O2)ccc1-c1ccnc(OC)c1)C(C)(C)C (stereo partly shown) [Example 236]
1100 | COc1cc(-c2ccc(C3CCc4ccc([C@H](C5CC5)[C@H](C)C(=O)O)cc4O3)cc2CN2[C@H](C)CCC[C@@H]2C)ccn1 (stereo partly shown) [Example 239]
1100 | COc1cc(-c2ccc(C3CCc4ccc([C@H](C5CC5)[C@H](C)C(=O)O)cc4O3)cc2CN2[C@@H](C)CCC[C@@H]2C)ccn1 (stereo partly shown) [Example 241]
1000 | COc1cc(-c2ccc(C3CCc4ccc([C@H](C5CC5)[C@H](C)C(=O)O)cc4O3)cc2CN(C)C(C)C)c(F)cn1 (stereo partly shown) [Example 254]

EC50 [pM] | Structure (SMILES)
900 | CCN(C)Cc1cc(C2CCc3ccc([C@H](C4CC4)[C@H](C)C(=O)O)cc3O2)ccc1-c1cc(OC)ncc1F (stereo partly shown) [Example 253]
900 | COc1cc(-c2ccc(C3CCc4ccc([C@H](C5CC5)[C@H](C)C(=O)O)cc4O3)cc2CN2CCCC3(CC3)C2)c(F)cn1 (stereo partly shown) [Example 260]
800 | COc1cc(-c2ccc(C3CCc4ccc([C@H](C5CC5)[C@H](C)C(=O)O)cc4O3)cc2CN2CCC3(CC3)C2)c(F)cn1 (stereo partly shown) [Example 263]
700 | COc1cc(-c2ccc(C3CCc4ccc([C@H](C5CC5)[C@H](C)C(=O)O)cc4O3)cc2CN2CCC3CC32)c(F)cn1 (stereo partly shown) [Example 252]
600 | C[C@H](C(=O)O)[C@H](c1ccc2c(c1)OC(c1ccc(-c3cc(O)ncc3F)c(CN(C)C3CCOC3)c1)CC2)C1CC1 (stereo partly shown) [Example 268a]
300 | COc1cc(-c2ccc(C3CCc4ccc([C@H](C5CC5)[C@H](C)C(=O)O)cc4O3)cc2CN2[C@H](C)CC[C@@H]2C)c(F)cn1 (stereo partly shown) [Example 251]
200 | COc1cc(-c2ccc([C@H]3CCc4ccc([C@H](C5CC5)[C@H](C)C(=O)O)cc4O3)cc2CN2CCCCC23CC3)ccn1 [Example 176]
200 | COc1cc(-c2ccc(C3CCc4ccc([C@H](C5CC5)[C@H](C)C(=O)O)cc4O3)cc2CN2CCCCC23CCC3)c(F)cn1 (stereo partly shown) [Example 262]
200 | COc1cc(-c2ccc(C3CCc4ccc([C@H](C5CC5)[C@H](C)C(=O)O)cc4O3)cc2CN2CCCC23COC3)c(F)cn1 (stereo partly shown) [Example 265]
200 | COc1cc(-c2ccc(C3CCc4ccc([C@H](C5CC5)[C@H](C)C(=O)O)cc4O3)cc2CN2CCCCC23CC3)ccn1 (stereo partly shown) [Example 276]
190 | COc1cc(-c2ccc([C@@H]3CCc4ccc([C@H](C5CC5)[C@H](C)C(=O)O)cc4O3)cc2CN2CC3CC3C2)c(F)cn1 (stereo partly drawn) [Example 250, Sodium (2S,3R)-3-((2S)-2-(3-((3-azabicyclo[3.1.0]hexan-3-yl)methyl)-4-(5-fluoro-2-methoxypyridin-4-yl)phenyl)chroman-7-yl)-3-cyclopropyl-2-methylpropanoate]
170 | COc1cc(-c2ccc(C3CCc4ccc([C@H](C5CC5)[C@H](C)C(=O)O)cc4O3)cc2CN(C(C)C)C(C)(C)C)ccn1 (stereo partly shown) [Example 237]
160 | COc1cc(-c2ccc(C3CCc4ccc([C@H](C5CC5)[C@H](C)C(=O)O)cc4O3)cc2CN2[C@@H](C)CCC[C@@H]2C)c(F)cn1 (stereo partly shown) [Example 231]
140 | COc1cc(-c2ccc(C3CCc4ccc([C@H](C5CC5)[C@H](C)C(=O)O)cc4O3)cc2CN2C(C)(C)CCCC2(C)C)ccn1 (stereo partly shown) [Example 238]
70 | COc1cc(-c2ccc([C@@H]3CCc4ccc([C@H](C5CC5)[C@H](C)C(=O)O)cc4O3)cc2CN(C(C)C)C(C)C)c(F)cn1 [Example 225, Sodium (2S,3R)-3-cyclopropyl-3-((S)-2-(3-((diisopropylamino)methyl)-4-(5-fluoro-2-methoxypyridin-4-yl)phenyl)chroman-7-yl)-2-methylpropanoate]
